Results taken from patent US20060228730A1, “Methods for identifying small molecules that bind specific RNA structural motifs” (priority 2001, published 2006).

Assays:
[1] = system: Rev / IIB (or RRE) region of HIV RNA; conditions: Zapp et al., Cell, 1993; cited from earlier work
[2] = system: HIV-1 TAR element TAR RNA oligonucleotide; assay: Gel retardation analysis (gel mobility shift), Tat peptide-TAR RNA; type: binding; conditions: Tat47-58 0.1-1.6 μM, 50 pmole TAR RNA, TK buffer, 12% non-denaturing polyacrylamide gel, FIG. 1
Experimental: FIG. 1. Gel retardation analysis to detect peptide-RNA interactions. In 20 μl reactions containing increasing concentrations of Tat47.58 peptide (0.1 μM, 0.2 μM, 0.4 μM, 0.8 μM, 1.6 μM) 50 pmole TAR RNA oligonucleotide was added in TK buffer. The reaction mixture was then heated at 90° C. for 2 min and allowed to cool slowly to 24° C. […] of 30% glycerol was added to each sample and applied to a 12% non-denaturing polyacrylamide gel. The gel was electrophoresed using 1200 volt-hours at 4° C. in TBE Buffer. Following electrophoresis, the gel was dried and the radioactivity was quantitated with a phosphorimager. The concentration of peptide added is indicated above each lane.
Tris-potassium chloride (TK) buffer is composed of 50 mM Tris-HC1 pH 7.4, 20 mM KCl, 0.1%Triton X-100, and 0.5 mM MgCl2. Tris-borate-EDTA (TBE) buffer is composed of 45 mM Tris-borate pH 8.0, and 1 mM EDTA. […]
RNA oligonucleotides were purchased from Dharmacon, Inc, Lafayette, Colo.). […] Then 10 μl of 30% glycerol was added to each reaction tube and the entire sample was loaded onto a TBE non-denaturing polyacrylamide gel and electrophoresed at 1200-1600 volt-hours at 4° C.; The gel was exposed to an intensifying screen and radioactivity was quantitated using a Typhoon phosporimager (Molecular Dynamics).

[3] = system: HIV-1 TAR element TAR RNA oligonucleotide; assay: Gel retardation analysis using automated capillary electrophoresis, Tat peptide-TAR RNA; type: binding; conditions: increasing concentrations of Tat peptide (0.1-1.6 μM), TK buffer, SCE9610 apparatus, FIG. 5
Experimental: FIG. 5. Gel retardation analysis to detect peptide-RNA interactions. In reactions containing increasing concentrations of Tat47-58 peptide (0.1 μM, 0.2 μM, 0.4 μM, 0.8 μM, 1.6 μM) 50 pmole TAR RNA oligonucleotide was added in TK buffer. The reaction mixture was then heated at 90° C. for 2 min and allowed to cool slowly to 24° C. The reactions were loaded onto a SCE9610 automated capillary electrophoresis apparatus (SpectruMedix; State College, Pennsylvania). The peaks correspond to the amount of free TAR RNA (“TAR”) or the Tat-TAR complex (“Tat-TAR”). The concentration of peptide added is indicated below each lane.
Tris-potassium chloride (TK) buffer is composed of 50 mM Tris-HCl pH 7.4, 20 mM KCl, 0.1% Triton X-100, and 0.5 mM MgCl2. Tris-borate-EDTA (TBE) buffer is composed of 45 mM Tris-borate pH 8.0, and 1 mM EDTA. Tris-Potassium chloride-magnesium (TKM) buffer is composed of 50 mM Tris-HCl pH 7.4, 20 mM KCl, 0.1% Triton X-100 and 5 mM MgCl2.
RNA oligonucleotides were purchased from Dharmacon, Inc. Lafayette, Colo.). 500 pmole of a 5′ fluorescein labeled oligonucleotide corresponding to the HIV-1 TAR element TAR RNA (5′-[…]-3′ (SEQ ID NO: 30); Huq et al., 1999, Nucleic Acids Research. 27:1084-1093; Hwang et al., 1999, Proc. Natl. Acad. Sci. USA 96:12997-13002) was used. […]

[4] = system: oligonucleotide corresponding to the 16S rRNA A site; assay: Gel retardation analysis (gel mobility shift), gentamicin-16S rRNA; type: binding
Experimental: FIG. 2. Gentamicin interacts with an oligonucleotide corresponding to the 16S rRNA. 20 μl reactions containing increasing concentrations of gentamicin (1 ng/ml, 10 ng/ml, 100 ng/ml, 1 μg/ml, 10 μg/ml, 50 μg/ml, 500 μg/ml) were added to 50 pmole RNA oligonucleotide in TKM buffer, heated at 90° C. for 2 min and allowed to cool slowly to 24° C. Then 10 μl of 30% glycerol was added to each sample and the samples were applied to a 13.5% non-denaturing polyacrylamide gel. The gel was electrophoresed using 1200 volt-hours at 4° C. in TBE Buffer Following electrophoresis, the gel was dried and the radioactivity was quantitated using a phosphorimager. The concentration of gentamicin added is indicated above each lane.
(§1) FIG. 3. The presence of 10 pg/ml gentamicin produces a gel mobility shift in the presence of the 16S rRNA oligonucleotide. 20 μl reactions containing increasing concentrations of gentamicin (100 ng/ml, 10 ng/ml, 1 ng/ml, 100 pg/ml, and 10 pg/ml) were added to 50 pmole RNA oligonucleotide in TKM buffer were treated as described for FIG. 2.
FIG. 4. Gentamicin binding to the 16S rRNA oligonucleotide is weak in the absence of MgCl2.
Tris-potassium chloride (TK) buffer is composed of 50 mM Tris-HC1 pH 7.4, 20 mM KCl, 0.1%Triton X-100, and 0.5 mM MgCl2. Tris-borate-EDTA (TBE) buffer is composed of 45 mM Tris-borate pH 8.0, and 1 mM EDTA. Tris-Potassium chloride-magnesium (TKM) buffer is composed of 50 mM Tris-HCl pH 7.4, 20 mM KCl, 0.1% Triton X-100 and 5 mM MgCl2.
RNA oligonucleotides were purchased from Dharmacon, Inc, Lafayette, Colo.). 500 pmole of either a 5′ fluorescein labeled oligonucleotide corresponding to the 16S rRNA A site (5′-[…]-3′ (SEQ ID NO: 29); Moazed & Noller, 1987, Nature 327:389-394; Woodcock et al., 1991, EMBO J. 10:3099-3103; Yoshizawa et al., 1998, EMBO J. 17:6437-6448) or a 5′ fluorescein labeled oligonucleotide corresponding to the HIV-1 TAR element TAR RNA (5′-[…]-3′ (SEQ ID NO: 30); Huq et al., 1999, Nucleic Acids Research. 27:1084-1093; Hwang et al., 1999, Proc. Natl. Acad. Sci. USA 96:12997-13002) was 3′ labeled with 5-^32P cytidine 3′,5′-bis(phosphate) (NEN) and T4 RNA ligase (NEBiolabs) in 10% DMSO as per manufacturer's instructions. The labeled oligonucleotides were purified using G-25 Sephadex columns (Boehringer Mannheim). For Tat-TAR gel retardation reactions the method of Huq et al. (Nucleic Acids Research, 1999, 27:1084-1093) was utilized with TK buffer containing 0.5 mM MgCl2 and a 12-mer Tat peptide (YGRKKRRQRRRP (SEQ ID NO: 31); single letter amino acid code). For 16S rRNA-gentamicin reactions, the method of Huq et al. was used with TKM buffer. In 20 μl reaction volumes 50 pmoles of ^32P cytidine-labeled oligonucleotide and either gentamicin sulfate (Sigma) or the short Tat peptide (Tat47.58) in TK or TKM buffer were heated at 90° C. for 2 minutes and allow to cool to room temperature (approximately 24° C.) over 2 hours. Then 10 μl of 30% glycerol was added to each reaction tube and the entire sample was loaded onto a TBE non-denaturing polyacrylamide gel and electrophoresed at 1200-1600 volt-hours at 4° C.; The gel was exposed to an intensifying screen and radioactivity was quantitated using a Typhoon phosporimager (Molecular Dynamics).

[5] = system: HIV TAR RNA element oligonucleotide; assay: Gel mobility shift, specificity control with unrelated oligonucleotide; type: binding; conditions: incubated with 10 μg/ml gentamicin, FIG. 3
Experimental: as §1
RNA oligonucleotides were purchased from Dharmacon, Inc, Lafayette, Colo.). 500 pmole of either a 5′ fluorescein labeled oligonucleotide corresponding to the 16S rRNA A site (5′-[…]-3′ (SEQ ID NO: 29); Moazed & Noller, 1987, Nature 327:389-394; Woodcock et al., 1991, EMBO J. 10:3099-3103; Yoshizawa et al., 1998, EMBO J. 17:6437-6448) or a 5′ fluorescein labeled oligonucleotide corresponding to the HIV-1 TAR element TAR RNA (5′-[…]-3′ (SEQ ID NO: 30); Huq et al., 1999, Nucleic Acids Research. 27:1084-1093; Hwang et al., 1999, Proc. Natl. Acad. Sci. USA 96:12997-13002) was 3′ labeled with 5-^32P cytidine 3′,5′-bis(phosphate) (NEN) and T4 RNA ligase (NEBiolabs) in 10% DMSO as per manufacturer's instructions. […] Then 10 μl of 30% glycerol was added to each reaction tube and the entire sample was loaded onto a TBE non-denaturing polyacrylamide gel and electrophoresed at 1200-1600 volt-hours at 4° C.; The gel was exposed to an intensifying screen and radioactivity was quantitated using a Typhoon phosporimager (Molecular Dynamics). […]

[6] = system: 60-mer from ribosomal RNA; conditions: Cundliffe et al., 1990; cited from earlier work

NC[C@@H]1O[C@H](O[C@H]2[C@@H](O)[C@H](O[C@@H]3[C@@H](O)[C@H](N)C[C@H](N)[C@H]3O[C@H]3O[C@H](CO)[C@@H](O)C[C@H]3N)O[C@@H]2CO)[C@H](N)[C@@H](O)[C@@H]1O[C@H]1O[C@H](CO)[C@@H](O)[C@H](O)[C@@H]1O [lividomycin A]
blocking of the binding of Rev to its viral recognition element in the IIB (or RRE) region of HIV RNA [1]: can block the binding

NC[C@@H]1O[C@H](O[C@H]2[C@@H](O)[C@H](O[C@@H]3[C@@H](O)[C@H](N)C[C@H](N)[C@H]3O[C@H]3O[C@H](CN)[C@@H](O)[C@H](O)[C@H]3N)O[C@@H]2CO)[C@H](N)[C@@H](O)[C@@H]1O [neomycin B]
blocking of the binding of Rev to its viral recognition element in the IIB (or RRE) region of HIV RNA [1]: can block the binding

NC[C@H]1O[C@H](O[C@H]2[C@H](O)[C@@H](O[C@H]3O[C@H](CO)[C@@H](O)[C@H](N)[C@H]3O)[C@H](N)C[C@@H]2N)[C@H](N)C[C@@H]1O [tobramycin]
blocking of the binding of Rev to its viral recognition element in the IIB (or RRE) region of HIV RNA [1]: can block the binding

YGRKKRRQRRRP [Tat47.58 peptide]
gel mobility shift of TAR RNA oligonucleotide in the presence of the Tat peptide [2]: a clear shift is visible
shift of TAR RNA peak in automated capillary electrophoresis [3]: a clear shift is visible

gentamicin
gentamicin concentration as low as which produces the mobility shift ([4]; TKM buffer (5 mM MgCl2), FIG. 2): 10 ng/mL
gentamicin concentration as low as which gel mobility shifts are produced ([4]; TKM buffer, concentrations ranged from 100 ng/ml to 10 pg/ml, FIG. 3): 10 pg/mL
gentamicin binding to the 16S rRNA oligonucleotide in the absence of MgCl2 ([4]; buffer does not contain MgCl2, FIG. 4 legend): weak
mobility shift when gentamicin is added after renaturation has proceeded to 75° C. ([4]; gentamicin added after the renaturation step proceeded to 75° C.): a mobility shift is not produced
gel shift when gentamicin is added at 90° C. or 85° C. ([4]; gentamicin present during the entire denaturation/renaturation cycle, data not shown): a gel shift is visualized
gentamicin concentration that must be added to produce a gel shift when MgCl2 is not present ([4]; no MgCl2 in buffer, FIG. 4): 1 mg/mL
mobility shift of RNA oligonucleotide corresponding to the 16S rRNA A site ([4]; varying concentrations of gentamicin (1 ng/ml-500 μg/ml), TKM buffer, 13.5% non-denaturing gel, FIG. 2): produces a mobility shift
gel mobility shift of unrelated oligonucleotide (HIV TAR RNA element) [5]: does not result in a gel mobility shift

thiostreptone
binding to a 60-mer from ribosomal RNA [6]: binds tightly
